Test results: US20040110844A1, “Anti-tumor pharmaceutical composition comprising N-vanillyl fatty acid amide” (KUREHA CHEMICAL INDUSTRY COMPANY, Limited, priority 2002, published 2004)

How the values were obtained:
B16F10 melanoma cell [1] = test: Growth of B16F10 melanoma cells, number of cells counted with trypan blue and hemocytometer; format: cell-based, mouse; conditions: for cells in culture relative to the control culture: 50 μM; for cells in culture relative to the control culture / cells in culture relative to the control culture (survival ratio): cultured for 48 hours, B16F10; for cells in culture relative to the control culture (survival ratio): 100 μM; for action on the growth of melanoma cells (in words): 10-300 μM capsaicin, 10-100 μM Dohevanil, 48 hours, versus control
Description: B16F10 melanoma cell used for the comparison was a malignant melanoma cell derived from a mouse. The melanoma cells were cultured under 5% CO2 condition at 37 degrees Celsius in DMEM culture medium (pH7.2) including 10% of bovine fetus serum and penicillin/streptomycin solution. After the cells reached from 70% to 80% confluent, the cells were treated with trypsin-EDTA to release from the wall of culture device and were subjected to passage culture.
The number of cells were measured by the process comprising suspending the cells collected, sufficiently mixing the suspension with a trypan blue stain solution in the same volume of the suspension, watching the suspension using a phase contrast microscope and measuring the number of cells with a hemocytometer (Burker-Turk hemocytometer, Nippon Rinsho Kikai Kogyo Ltd.)
In order to examine the action of capsaicin to the growth of melanoma cells, the number of the cells were measured after 10 μM, 30 μM, 50 μM, 100 μM, or 300 μM of capsaicin was added to the MDEM media in which the melanoma cells exist and then the cells were cultured for 48 hours. […] In order to examine the action of Dohevanil to the growth of melanoma cells, the number of the cells were measured in the same manner as conducted for capsaicin except that capsaicin was replaced with Dohevanil. The melanoma cells were cultured in 10 μM, 30 μM, 50 μM, or 100 μM of Dohevanil.

caspase 3 activity [2] = test: Measurement of caspase 3 activity (Example 6); format: cell-based
HeLa cells = test: HeLa cell growth by WST-1 method and LDH active release; format: cell-based, human; conditions: for survival ratio of the cells: 100 μM, HeLa cells; for action on the growth of HeLa cells (in words): 10, 30, 50, 100 μM
Description: (§1) In order to make a comparison between the anti-tumor effects of capsaicin and Dohevanil, the following experimentation was carried out using HeLa cells derived from human uterocervical cancer as a tomor cell and NIH/3T3 cells as a normal cell. These cells used in the experimentation were cultured in RPMI-1640 medium (pH7.2) with 5% bovine fetal serum under the culture conditions being maintained in 5% CO2 and at 37 degrees Celsius. capsaicin or Dohevanil was added to each of the cell suspensions in the concentration of 10 μM, 30 μM, 50 μM, or 100 μM and then the cells were cultured. In this comparative example, the capability of cell growth was measured by WST-1 method and LDH active release into the supernatant as an indicator.
(§2) In this connection, the term “WST-1 method” used in the example means a method comprising reducing a formazan by using a reductase activity of mitochondria and determining an absorption of the coloring. The absorption may be used as an indicator of the cell growth because the reductase activity of mitochondria is lost if the cells die. The term “LDH active release” as used herein means that LDH (lactate dehydrogenase) is released due to a destruction of cell membrane accompanied with a cell death, and the measured value of the active release can be used as an indicator of the cell death.

B16F10 melanoma cell [3] = test: Hoechst 33342 fluorescence microscopy for apoptosis in melanoma cells; format: cell-based, mouse; conditions: Hoechst33342, each concentration, versus control
Description: The observation using the fluorescence microscope was carried out by the process comprising washing with PBS (−) a suspension of B16F10 cells treated with an agent for a given time (1×10^6 cells/ml), fixing the cells with 4% paraformaldehyde overnight, washing the cell fixed solution with PBS(−), suspending the cells in 20 μl of PBS (−), mixing 2 μl of fluorescence indicator (Hoechst 33342 (1 mM)) with each 5 μl of the cell suspension, placing a cover glass on the mixture, watching it using the fluorescence microscope (U region) and photographing.
The shape of the cells was observed using Hoechst33342 (dye) which specifically combined with the chromosome by fluorescence microscope to find out whether or not the cell death by capsaicin or Dohevanil was due to the apoptosis. As a result, the aggregation of chromatins and the disorder of nuclear shape, which are characteristics of the cell death by apoptosis, were observed by comparison with the control in each concentration of capsaicin or Dohevanil.

B16F10 melanoma cell [4] = test: Phase contrast microscope observation of treated melanoma cells; format: cell-based, mouse; conditions: Dohevanil 50 μM compared with capsaicin 300 μM
Description: The observation of cytomorphology using the light microscope was carried out by counting with TMS (NIKON Corporation) and photographing, after plating the cells on a multiplate, and culturing it for a given time.
The shape and appearance of the melanoma cells treated in the presence of capsaicin in the concentration of 300 μM or Dohevanil in the concentration of 50 μM was observed using a phase contrast microscope.

caspase 3 activity [5] = test: Measurement of caspase 3 activity (Example 7, U937); format: cell-based, human
Description: In particular, when the concentration is 100 μM, although the survival ratio of the cells with capsaicin is about 50%, that with Dohevanil is zero (0) %. Accordingly, it is apparent as compared with capsaicin that Dohevanil is very low in the degree of hotness and stimulus, and coincidentally has a higher anti-leukemic cell effects.

NIH/3T3 cells = test: NIH/3T3 normal cell growth by WST-1 method and LDH active release; format: cell-based; conditions: concentration 30 μM or less
Description: as §1, §2

[6] = system: human acute leukemia cell U937; test: U937 cell growth by cell differential staining with trypan blue; format: cell-based; conditions: for survival ratio of the cells: 100 μM, U937 cells; for action on the growth of U937 cells (in words): 10, 30, 50, 100 μM
Description: In order to make a comparison between the anti-leukemic cell effects of capsaicin and Dohevanil, the following experimentation was carried out using a human acute leukemia cell U937. The U937 cells were cultured in RPMI-1640 medium (pH7.2) with 5% bovine fetal serum under the culture conditions being maintained in 5% CO2 and at 37 degrees Celsius. capsaicin or Dohevanil was added to each of the cell suspensions in the concentration of 10 μM, 30 μM, 50 μM,or 100 μM and then the cells were cultured. In this comparative example, the capability of cell growth was evaluated using the measured value as an indicator obtained by a method for the cell differential staining with trypan blue.
The method for the cell differential staining with trypan blue is a method utilizing the characters that trypan blue combines with a protein to color in blue and that trypan blue enters into the dead cells due to the loss of a membrane function to prevent from its invasion. Since the dead cells are colored in blue with trypan blue, the survival ratio of the cells can be determined by counting the stained cells using a microscope.

[7] = system: HL-60 cell (acute promyelocytic leukemia cell); conditions: low concentration; cited from earlier work
[8] = system: normal cells of human mammary gland epithelium and of liver and kidney of the rat; conditions: cited from earlier work
[9] = system: Hela cell (uterocervica cancer cell); conditions: low concentration; cited from earlier work

CC/C=C\C/C=C\C/C=C\C/C=C\C/C=C\C/C=C\CCC(=O)NCc1ccc(O)c(OC)c1 [Dohevanil, N-vanillyl-4,7,10,13,16,19-Docosahexaenamide]
cells in culture relative to the control culture (B16F10 melanoma cell [1]): about 10% | cells in culture relative to the control culture (survival ratio) (B16F10 melanoma cell [1]): 0% | action on the growth of melanoma cells (in words) (B16F10 melanoma cell [1]): suppressed the growth of the cells depending on the concentration | apoptosis according to caspase 3 activity (caspase 3 activity [2]): induce the apoptosis to cause the cell death | survival ratio of the cells (HeLa cells): 0% | action on the growth of HeLa cells (in words) (HeLa cells): suppress the growth of HeLa cells depending on their concentrations | induction of apoptosis (aggregation of chromatins, disorder of nuclear shape) (B16F10 melanoma cell [3]): strongly induces the apoptosis | melanoma cells adhered to the wall of culture vessel (in words) (B16F10 melanoma cell [4]): extremely reduced | apoptosis according to caspase 3 activity (caspase 3 activity [5]): induce the apoptosis to cause the cell death | action to NIH/3T3 normal cells (in words) (NIH/3T3 cells): hardly act | survival ratio of the cells [6]: 0% | action on the growth of U937 cells (in words) [6]: suppress the growth of U937 cells depending on their concentrations

COc1cc(CNC(=O)CCCCC=CC(C)C)ccc1O [capsaicin, 8-methyl-N-vanillyl-6-nonenamide]
proliferative inhibitory effect (in words) [7]: proliferative inhibitory effect in a low concentration | cells in culture relative to the control culture (B16F10 melanoma cell [1]): about 60% | cells in culture relative to the control culture (survival ratio) (B16F10 melanoma cell [1]): about 50% | action on the growth of melanoma cells (in words) (B16F10 melanoma cell [1]): suppressed the growth of the cells depending on the concentration | proliferative inhibitory effect to normal cells (in words) [8]: without any proliferative inhibitory effects | apoptosis according to caspase 3 activity (caspase 3 activity [2]): induce the apoptosis to cause the cell death | survival ratio of the cells (HeLa cells): about 50% | action on the growth of HeLa cells (in words) (HeLa cells): suppress the growth of HeLa cells depending on their concentrations | induction of apoptosis (aggregation of chromatins, disorder of nuclear shape) (B16F10 melanoma cell [3]): induce the apoptosis to melanoma cells | apoptosis according to caspase 3 activity (caspase 3 activity [5]): induce the apoptosis to cause the cell death | proliferative inhibitory effect (in words) [9]: proliferative inhibitory effect in a low concentration | action to NIH/3T3 normal cells (in words) (NIH/3T3 cells): hardly act | survival ratio of the cells [6]: about 50% | action on the growth of U937 cells (in words) [6]: suppress the growth of U937 cells depending on their concentrations
